Results as given in patent US20120065614A1 (UNIVERSITY OF NORTH TEXAS, priority 2010, published 2012).
Read-outs that look alike come from different tables or passages of the source.

What was measured:
[1] = Steady-state photoluminescence spectra (emission/excitation maxima); format: physicochemical
Method: (§1) Photoluminescence characterization: All photoluminescence studies were carried with the PTI spectrofluorometer described below. For titrations, 2.5-mL aliquots were placed in the quartz cuvette and 0.1 mL of gel was added at every titration point with magnetic stirring. Titration data were plotted as I/Io vs. volume of gel added (where I=intensity of sample after addition of gel and 1o=intensity of pure aqueous gold phosphor solution). Lifetime data were analyzed using a xenon flash lamp or N2 laser systems for both the sample and a scatterer solution used to generate the instrument response function (IRF) used for deconvolution.
Spectroscopic equipment: Steady-state luminescence spectra were acquired with a PTI QuantaMaster Model QM-4 scanning spectrofluorometer equipped with a 75-watt xenon lamp. The UVN is absorption spectra were measured at 1-nm resolution on either a diode array spectrometer (Hewlett-Packard, model 8543) or a Perkin-Elmer Lambda-900 double-beam UVN is/NIR absorption spectrophotometer.

[2] = Time-resolved phosphorescence lifetime; format: physicochemical
Method: as §1

[3] = cited from earlier work; for emission band maximum: literature
[4] = solution, literature results, fitting error not given; cited from earlier work
[5] = cited from earlier work

O=S(=O)([O-])c1cccc([PH](c2cccc(S(=O)(=O)[O-])c2)(c2cccc(S(=O)(=O)[O-])c2)[Au]([PH](c2cccc(S(=O)(=O)[O-])c2)(c2cccc(S(=O)(=O)[O-])c2)c2cccc(S(=O)(=O)[O-])c2)[PH](c2cccc(S(=O)(=O)[O-])c2)(c2cccc(S(=O)(=O)[O-])c2)c2cccc(S(=O)(=O)[O-])c2)c1 [Na8[Au(TPPTS)3], tris[tris(3,3′,3″-trisulfonatophenyl)phosphine]aurate(I)] gave an excitation maximum ([1]; aqueous solution of 0.001M) of 292 nm, an emission maximum ([1]; solid state) of 500 nm and an excitation maximum ([1]; solid state) of 356 nm. The “PL, soln. (RT), emission, corrected” value ([1]; solution, RT, Corr.) was “nm exc.; 525 nm em”, the “PL, soln. (RT), excitation, corrected” value ([1]; solution, RT, Corr.) was 285 nm and the “PL, soln. (RT), emission, uncorrected” value ([1]; solution, RT, Uncorr.) was 510 nm. For the same molecule, the “PL, soln. (RT), excitation, uncorrected” value ([1]; solution, RT, Uncorr.) was “Uncorr.: 296 nm exc.;”, the phosphorescence lifetime ([2]; after addition of PNIPAM hydrogels to the aqueous solution) was 2.6 μs and the phosphorescence lifetime ([2]; aqueous solution before addition of PNIPAM hydrogels) was 1.4 μs. The “τ, soln. (RT)” value ([2]; aqueous solution, RT) was 2.04 ± 0.02 μs (FIGS, the emission band maximum ([3]; solid state at 77° K) was 486 nm and the emission band maximum ([3]; solid state at room temperature) was 494 nm. The “PL, soln. (RT), emission” value ([3]; solution, RT, literature results (broad)) was 513 nm, the “PL, soln. (RT), excitation” value ([3]; solution, RT, literature results) was 293 nm and the “τ, soln. (RT)” value [4] was 1.9 μs (fitting error not given). The water solubility [5] was “highly water soluble”.
